These results are taken from patent US8481484B2, “Cyclic heptapeptide and use of the same” (National University Corporation Nagoya University, priority 2007, dated 2013).

The structures appear in SMILES notation.

The experiment deals with Murine preadipocytes (3T3-L1). Briefly: Fat accumulation in 3T3-L1 preadipocytes during induced differentiation (Triglyceride E-test). The format is cell-based. The note with it: 3T3-L1, differentiation-inducing medium with test compound, seven days; stated in words, numbers only in FIG. 7. As for the experimental part: Murine preadipocytes (3T3-L1) have such a property as to accumulate fat following differentiation. In the present test, while differentiation of 313-L1 preadipocytes was induced by insulin and the like, test compounds were simultaneously added. Then, an amount of fat in the cells was measured to evaluate that the test compounds exert inhibition of differentiation of the preadipocytes or an inhibitory effect on fat accumulation following differentiation. In this test, in a case where cells die due to the test compounds, there is concern that the test might unintentionally result in a low fat accumulation rate, which is seemingly a favorable result. […] Also, fat accumulation was observed under a microscope from time to time during the test.
Preadipocytes (3T3-L1) were cultured to confluence in the presence of 5% CO2 at 37° C. for two days in 150 μL of culture media (DMEM containing 10% fetal bovine serum (glucose concentration of […])) in two 96-well microplates. Then, with respect to both plates, the culture media were aspirated and replaced with 150 μL of differentiation-inducing media containing a certain concentration of test compounds (DMEM containing 10% fetal bovine serum (glucose concentration of […]) in which 1 μM dexamethasone, 10 μg/mL insulin, and 0.5 mM 3-isobutyl-1-methylxanthine were dissolved). Normally, methanol solution containing a 200-fold concentration of test compounds (1a, 1b, 1c, 1d, and 1e) was prepared, and 7.5 μL of the solution was added with respect to 1.5 mL of the differentiation-inducing media. At this time, a well that was not replaced with the differentiation-inducing medium and a well to which only methanol was added instead of a sample solution were prepared as a control. The plates were cultured in the presence of 5% CO2 at 37° C. for seven days. Thereafter, one plate was served for measurement of an amount of fat, and the other plate was served for measurement of a survival rate.
To each well of the plate for measurement of an amount of fat, 10 μL of 2% Triton X-100 was added, and the plate was left to stand for 30 minutes. Subsequently, the plate was sealed with a sealing tape (a product of Asahi Techno Glass Corporation) and sonicated for one minute in an ultrasonic cleaner. Subsequently, 20 μL of solution was collected from each well and added to a 96-well microplate in which 150 μL of Triglyceride E-test Wako (a product of Wako Pure Chemical Industries, Ltd.), a coloring reagent, had been added to each well, and then the plate was incubated at 37° C. for 30 minutes, after which absorbance (at 630 nm, control at 690 nm) was measured by a plate reader. A ratio of absorbance in a compound-added group to absorbance in a compound-free group was obtained as a percentage, which was provided as a fat accumulation rate. Fat accumulation rates with respect to a concentration in each sample were represented as a semilogarithmic graph. From this graph a compound concentration at which a fat accumulation rate was 50% was read off, which was provided as a 50% effective concentration (EC50). It can be interpreted that the smaller the EC50 value is, the stronger the inhibitory effect on differentiation of adipocytes or on fat accumulation in adipocytes is.
As for `CC[C@H](C)[C@H]1NC(=O)[C@@H](CC(C)C)NC(=O)[C@@H](C)N(C)C(=O)[C@H](C)N(C)C(=O)[C@H](CC(C)C)NC(=O)[C@H](CC(C)C)N(C)C(=O)[C@H](C)N(C)C1=O` [1b], the “EC50 (compound concentration at which the fat accumulation rate is 50%); inhibitory effect on differentiation of adipocytes or on fat accumulation” value is given as “excellently exerts an inhibitory effect on differentiation of adipocytes or on fat accumulation in adipocytes”. Next, `CC[C@H](C)[C@H]1NC(=O)[C@@H](COCc2ccccc2)NC(=O)[C@@H](C)N(C)C(=O)[C@H](C)N(C)C(=O)[C@H](CC(C)C)NC(=O)[C@H](CC(C)C)N(C)C(=O)[C@H](C)N(C)C1=O` [1c]: “excellently exerts an inhibitory effect on differentiation of adipocytes or on fat accumulation in adipocytes”. Next, `CC[C@H](C)[C@H]1NC(=O)[C@@H]([C@H](C)O)NC(=O)[C@@H](C)N(C)C(=O)[C@H](C)N(C)C(=O)[C@H](CC(C)C)NC(=O)[C@H](CC(C)C)N(C)C(=O)[C@H](C)N(C)C1=O` [1d]: “excellently exerts an inhibitory effect on differentiation of adipocytes or on fat accumulation in adipocytes”. `CC[C@H](C)[C@H]1NC(=O)[C@@H](CO)NC(=O)[C@@H](C)N(C)C(=O)[C@H](C)N(C)C(=O)[C@H](CC(C)C)NC(=O)[C@H](CC(C)C)N(C)C(=O)[C@H](C)N(C)C1=O` [1e]: the “EC50 (compound concentration at which the fat accumulation rate is 50%); inhibitory effect on differentiation of adipocytes or on fat accumulation” value is reported as “excellently exerts an inhibitory effect on differentiation of adipocytes or on fat accumulation in adipocytes”. On to `CC[C@H](C)[C@H]1NC(=O)[C@@H](C)NC(=O)[C@@H](C)N(C)C(=O)[C@H](C)N(C)C(=O)[C@H](CC(C)C)NC(=O)[C@H](CC(C)C)N(C)C(=O)[C@H](C)N(C)C1=O` [1a], for which the “EC50 (compound concentration at which the fat accumulation rate is 50%); inhibitory effect on differentiation of adipocytes or on fat accumulation” value is “excellently exerts an inhibitory effect on differentiation of adipocytes or on fat accumulation in adipocytes”.
